Assay results reported in ChEMBL document CHEMBL3525983, “Pharmacokinetics, metabolism, and disposition of rivoglitazone, a novel peroxisome proliferator-activated receptor γ agonist, in rats and monkeys” (Drug Metab Dispos, 2011).

Tests used:
[1] = Drug excretion in F344/DuCrlCrlj rat bile treated with [14C]rivoglitazone at 1 mg/kg, po administered via gavage measured during 0 to 48 hrs by radio-HPLC analysis; format: ADME, organism-based; design: dose 1 mg/kg, dosed compound name [14C]Rivoglitazone, route oral; details: in vivo
[2] = system: Rhesus monkey; assay: Drug level in monkey plasma treated with [14C]rivoglitazone assessed as ratio of molar basis AUC (0 to t) at 1 mg/kg, po administered via gavage by LC-MS/MS analysis; format: ADME, organism-based, Macaca mulatta; design: dose 1 mg/kg, dosed compound name [14C]Rivoglitazone, route oral; details: in vivo
[3] = Drug excretion in monkey urine treated with [14C]rivoglitazone at 1 mg/kg, po administered via gavage measured during 0 to 72 hrs by radio-HPLC analysis; format: ADME, organism-based, Macaca mulatta; design: dose 1 mg/kg, dosed compound name [14C]Rivoglitazone, route oral; details: rhesus monkey, in vivo
[4] = Drug excretion in F344/DuCrlCrlj rat feces treated with [14C]rivoglitazone at 1 mg/kg, po administered via gavage measured during 0 to 48 hrs by radio-HPLC analysis; format: ADME, organism-based; design: dose 1 mg/kg, dosed compound name [14C]Rivoglitazone, route oral; details: in vivo
[5] = Retention time of the compound by LC-MS/MS analysis; format: physicochemical; design: dosed compound name [14C]Rivoglitazone
[6] = Drug excretion in F344/DuCrlCrlj rat urine/feces treated with [14C]rivoglitazone at 1 mg/kg, po administered via gavage measured during 0 to 48 hrs by radio-HPLC analysis; format: ADME, organism-based; design: dose 1 mg/kg, dosed compound name [14C]Rivoglitazone, route oral; details: in vivo
[7] = system: Rattus norvegicus; assay: Drug level in F344/DuCrlCrlj rat plasma treated with [14C]rivoglitazone assessed as ratio of molar basis AUC (0 to t) at 1 mg/kg, po administered via gavage by LC-MS/MS analysis; format: ADME, organism-based; design: dose 1 mg/kg, dosed compound name [14C]Rivoglitazone, route oral; details: in vivo
[8] = Drug excretion in F344/DuCrlCrlj rat urine/bile treated with [14C]rivoglitazone at 1 mg/kg, po administered via gavage measured during 0 to 48 hrs by radio-HPLC analysis; format: ADME, organism-based; design: dose 1 mg/kg, dosed compound name [14C]Rivoglitazone, route oral; details: in vivo
[9] = Drug excretion in F344/DuCrlCrlj rat urine treated with [14C]rivoglitazone at 1 mg/kg, po administered via gavage measured during 0 to 48 hrs by radio-HPLC analysis; format: ADME, organism-based; design: dose 1 mg/kg, dosed compound name [14C]Rivoglitazone, route oral; details: in vivo
[10] = Drug excretion in monkey urine/feces treated with [14C]rivoglitazone at 1 mg/kg, po administered via gavage measured during 0 to 72 hrs by radio-HPLC analysis; format: ADME, organism-based, Macaca mulatta; design: dose 1 mg/kg, dosed compound name [14C]Rivoglitazone, route oral; details: rhesus monkey, in vivo
[11] = system: Rattus norvegicus; assay: Drug level in F344/DuCrlCrlj rat plasma treated with [14C]rivoglitazone at 1 to 5 mg/kg, po administered as single dose via gavage by LC-MS/MS analysis; format: ADME, organism-based; design: dose 1-5 mg/kg, dosed compound name [14C]Rivoglitazone, route oral; details: in vivo

Compound recovery [1]	AUCmet/AUCp [2]	Compound recovery [3]	Compound recovery [4]	Retention_time [5]	Compound recovery [6]	AUCmet/AUCp [7]	Compound recovery [8]	Compound recovery [9]	Compound recovery [10]	Compound recovery [11]	SMILES
1%	0.08%	1.3%	metabolite_not_detected	18.1 min	1%	0.02%	2%	1%	1.3%	–	COc1ccc2nc(COc3ccc(CC(C(N)=O)S(C)(=O)=O)cc3)n(C)c2c1 (centres undefined)
23%	0.64%	–	metabolite_not_detected	19 min	10%	23.4%	33%	10%	–	metabolite_detected	Cn1c(COc2ccc(CC3SC(=O)NC3=O)cc2)nc2ccc(OS(=O)(=O)O)cc21 (centres undefined)
